Experimental findings from PubChem BioAssay (NCI) are described below.

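48-hour exposure; five concentrations; linearly interpolated endpoints. GI50 = concentration required for 50% inhibition of growth. At the TGI there is no net growth.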 Bounds are passed on as bounds.

What all share (experiment): NCI tumour cell line growth inhibition, 48 h
The subject of assay [1] is SK-MEL-5 melanoma.
Assay [2] relates to HOP-92 NSCLC.
For assay [3], the system named is COLO 205 colon.
Assay [4] relates to OVCAR-8 ovarian.
Assay [5] relates to UACC-257 melanoma.
Assay [6] concerns HS 578T breast.
Assay [7] concerns PC-3 prostate.
In assay [8] the test system is NCI-H460 lung.
Assay [9] relates to HL-60(TB) leukemia.
The test system of assay [10] is HCC-2998 colon.

As to `CC1=C[C@H]2c3c(c(O)c(O)c4oc5c(C)cccc5c(=O)c34)[C@H](c3cc(O)c(O)c4oc5c(C)cccc5c(=O)c34)[C@H]2C(C)(C)C1`, the GI50 in [1] is 1.43 µM; in [2] it was 2.39 µM; in [3], 2.41 µM; in assay [4], 1.7 µM; in assay [5], 2.54 µM; in assay [6], 1.93 µM. The GI50 in assay [7] was 1.51 µM; in [8] it was 0.825 µM; in assay [9], 3 µM; in assay [10], 1.45 µM. Further, the TGI was found to be 2.78 µM in assay [1]; 6.69 µM in [2]; 6.8 µM in assay [3]; 17.4 µM in [4]; 8.34 µM in assay [5]; 9.19 µM in [6]. Further, the TGI in [7] was found to be 10.2 µM; in assay [8], 3.02 µM; in assay [9], 9.23 µM; in [10], 3.47 µM.
For the compound `COc1cc(NS(C)(=O)=O)ccc1Nc1c2ccc(Cl)cc2nc2c(OC)cccc12`, the GI50 in [1] was 0.129 µM; in assay [2], 0.0765 µM; in assay [3] it was 0.182 µM; in assay [4], 0.186 µM; in assay [5] it was 0.698 µM; in assay [6], 4.47 µM. Further, the GI50 was 0.782 µM in assay [7], 0.0313 µM in assay [9] and 0.826 µM in assay [10]. Further, the TGI in assay [1] worked out at 3.97 µM; in [2] it was 2.48 µM; in assay [3], 2.35 µM; in assay [4], 5.07 µM; in [5], 4.07 µM; in assay [6], 73.7 µM. Further, the TGI in assay [7] came to 15.2 µM; in assay [8], 1.37 µM; in [9], 1.3 µM; in [10], 5.23 µM.
In the case of `COc1ccc(-c2[nH]c3ccccc3c2C=C(C#N)C#N)cc1`, the GI50 in [2] was 1.21 µM; in assay [3], 0.223 µM; in assay [4] it was 1.1 µM; in assay [5] it was > 20.6 µM; in [6] it was 0.201 µM; in [7], 0.547 µM. For the same compound, the GI50 in assay [8] is 0.368 µM; in assay [9], 0.271 µM; in assay [10], 0.67 µM. Also, the TGI is > 100 µM in assay [2]; 0.533 µM in assay [3]; > 100 µM in assay [4]; > 100 µM in assay [5]; > 100 µM in assay [7]; > 100 µM in assay [8]. Also, the results for the TGI in assay [9] and in assay [10] were 0.714 µM and 3.16 µM, respectively.
`CC(C)=CCC[C@H](C)[C@@H]1CC[C@]2(C)C3CC[C@]4(OC4(C)C)C(CCCO)[C@]3(C)CC[C@@]12C` (some centres undefined): the GI50 in assay [1] was 22.7 µM; in [2], 14.5 µM; in assay [3], 31.5 µM; in assay [4] it was 37.7 µM; in [5], 24.1 µM; in assay [6], 24.4 µM. The GI50 in [7] is 18.2 µM; in assay [8], 23.7 µM; in [9] it was 20.7 µM; in assay [10], 7.75 µM. Besides, the TGI in [1] is 42.9 µM; in assay [2], 34.7 µM; in [3], > 100 µM; in assay [4] it was > 100 µM; in assay [5], 59.9 µM; in assay [6], 58.5 µM. Besides, the TGI in [7] came out at 41.1 µM; in [8], 70.3 µM; in [9], 45.3 µM; in assay [10], 22.5 µM.
`CCCN(CCC)C(=O)C1=Cc2ccc(-c3ccc(C(=O)N4CCCC4)cc3)cc2N=C(N)C1`: the GI50 was 2.91 µM in [1]; 7.99 µM in assay [2]; 4.26 µM in assay [3]; 16.1 µM in [4]; 9.03 µM in assay [5]; 16 µM in assay [6]. The GI50 in assay [7] was 8.56 µM; in assay [8], 4.46 µM; in assay [9], 3.46 µM; in assay [10] it was 14.4 µM. For the same compound, the TGI in assay [1] worked out at 10.9 µM; in [2], 54.3 µM; in assay [3] it was 16.3 µM; in assay [4], 68.5 µM; in assay [5], 22.3 µM; in assay [6] it was 59 µM. For the same compound, the TGI in [7] was > 95.4 µM; in [8], 17.4 µM; in assay [9] it was 15.6 µM; in assay [10], 35.8 µM.
In the case of `CC(=O)N1N=C2/C(=C/c3ccccc3)CC(C)CC2C1c1ccccc1` (centres undefined), the GI50 in assay [1] is 11.6 µM; in assay [2], 13.9 µM; in [3], 16.5 µM; in assay [4] it was 16.1 µM; in assay [5], 16.5 µM; in [6], 15.4 µM. In addition, the GI50 in [7] is 10.7 µM; in assay [8], 13 µM; in assay [9], 8.82 µM; in [10], 8.86 µM. In addition, the TGI is 25.4 µM in [1]; 31.2 µM in [2]; 45.6 µM in assay [3]; 50.6 µM in assay [4]; 32.6 µM in [5]; 34.6 µM in assay [6]. In addition, the TGI in [7] was 40.2 µM; in assay [8], 27.8 µM; in [9] it was 32.1 µM; in assay [10], 21.2 µM.
Take `C[C@@H]1CN(C(=O)c2ccc(NC(=O)c3cc(O[C@H](C)c4c(Cl)ccc(F)c4Cl)c(N)nn3)cc2)C[C@H](C)N1`: the GI50 is 1.55 µM in assay [1]; 0.722 µM in assay [2]; 7.16 µM in [4]; 1.39 µM in assay [5]; 3.02 µM in assay [6]; 3.65 µM in assay [7]. In addition, the values for the GI50 in assay [8], in assay [9] and in assay [10] were 3.1 µM, 1.21 µM and 14.5 µM, respectively. The TGI in assay [1] was found to be 3.44 µM; in [2] it was 5.18 µM; in assay [4] it was 19.7 µM; in [5], 3.2 µM; in [6] it was 21.9 µM; in [7] it was 16.7 µM. Also, the TGI in assay [8] is 13.7 µM; in assay [9], 3.3 µM; in assay [10], 29.1 µM.
